Data reported in patent US12397518B2, “WS12-releasing contact lens” (CooperVision International Limited, priority 2021, dated 2025).

Columns and labels:
[1] = WS12 leaching into PBS packaging solution during autoclave (HPLC); format: physicochemical; conditions: standard contact lens sterilization and storage conditions
Protocol: Silicone hydrogel contact lenses were prepared by curing the formulation for stenfilcon A in contact lens molds. The cured stenfilcon A was removed from the molds and extracted by immersing them for 215 minutes in ethanol (EtOH) containing WS12 (Tocris Bioscience) in the loading concentrations shown in Table I. The lenses were removed from the EtOH and washed in DI water for approximately 6 minutes, followed by two exchanges of DI water for approximately 30 minutes each. The lenses were transferred to 6 mL glass vials containing 3 mL phosphate buffered saline at pH 7.5 (0.78 wt. % NaCl, 0.05 wt. % sodium phosphate monobasic, and 0.36 wt. % sodium phosphate dibasic), referred to herein as PBS. The vials were sealed and autoclaved.
Each autoclaved lens was transferred to a vial containing 3 ml EtOH and stored overnight on a 150 rpm shaker at room temperature to extract WS12 from the lens. The EtOH extracts and the PBS in which the lenses were autoclaved were submitted for analysis by HPLC (detection wavelength=250 nm) against calibration standards to determine the average amount of WS12 loaded into each (n=5) and whether the WS12 leaches from the lens during autoclave.

[2] = biological target: transient receptor potential melastatin-8 (TRPM8) ion channels (Homo sapiens, UniProt Q7Z2W7); conditions: background statement; cited from earlier work
transient receptor potential melastatin-8 (TRPM8) ion channels, sequence (Q7Z2W7 whole entry, species assumed): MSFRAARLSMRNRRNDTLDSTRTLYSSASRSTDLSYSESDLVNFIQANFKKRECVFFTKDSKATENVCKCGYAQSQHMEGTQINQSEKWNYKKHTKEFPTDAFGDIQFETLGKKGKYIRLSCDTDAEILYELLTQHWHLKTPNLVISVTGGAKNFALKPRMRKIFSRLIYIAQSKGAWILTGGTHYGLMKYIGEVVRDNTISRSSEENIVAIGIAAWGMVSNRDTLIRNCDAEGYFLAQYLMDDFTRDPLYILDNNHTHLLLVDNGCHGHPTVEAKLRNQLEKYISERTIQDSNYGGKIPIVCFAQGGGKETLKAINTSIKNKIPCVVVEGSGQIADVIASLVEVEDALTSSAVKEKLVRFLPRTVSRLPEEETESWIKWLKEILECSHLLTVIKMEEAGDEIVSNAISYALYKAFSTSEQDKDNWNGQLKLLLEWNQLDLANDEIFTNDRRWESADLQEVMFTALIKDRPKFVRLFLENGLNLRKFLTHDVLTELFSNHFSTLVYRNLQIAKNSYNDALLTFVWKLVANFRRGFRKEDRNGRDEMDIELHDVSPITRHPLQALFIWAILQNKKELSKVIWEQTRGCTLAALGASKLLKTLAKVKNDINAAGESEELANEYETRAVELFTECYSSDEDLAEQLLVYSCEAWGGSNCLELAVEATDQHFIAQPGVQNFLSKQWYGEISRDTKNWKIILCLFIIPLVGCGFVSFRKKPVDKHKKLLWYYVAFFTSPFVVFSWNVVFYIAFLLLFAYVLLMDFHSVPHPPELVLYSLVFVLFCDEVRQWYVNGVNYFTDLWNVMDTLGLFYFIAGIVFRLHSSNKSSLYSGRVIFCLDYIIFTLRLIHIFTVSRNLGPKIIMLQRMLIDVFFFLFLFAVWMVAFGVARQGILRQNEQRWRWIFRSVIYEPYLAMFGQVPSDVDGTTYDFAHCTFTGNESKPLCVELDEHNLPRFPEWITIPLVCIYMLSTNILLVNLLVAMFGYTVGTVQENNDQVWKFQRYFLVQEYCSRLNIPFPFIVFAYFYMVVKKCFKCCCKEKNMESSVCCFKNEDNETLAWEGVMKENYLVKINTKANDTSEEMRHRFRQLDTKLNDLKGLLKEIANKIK

stability of WS12 in hydrogel contact lens material [1]: without degradation or leaching
Compound: COc1ccc(NC(=O)C2CC(C)CCC2C(C)C)cc1 (centres unmarked) [WS12, N-(4-Methoxyphenyl)-5-methyl-2-(1-methylethyl)cyclohexanecarboxamide]
activation of TRPM8 ion channels [2]: selectively activates
